Eleven molecules from patent US8222247B2, “Modulators of glucocorticoid receptor, AP-1, and/or NF-kappabeta activity and use thereof” (Bristol-Myers Squibb Company, priority 2006, dated 2012) can be followed below.

Where two headings read alike, the source gives them in different places.

In the assay the test system is AP-1 induced transcriptional activity. Kind of assay: Cellular Transrepressional Assay (AP-1 luciferase reporter in A549 cell, PMA activated). The class given is cell-based. The following applies: pAP-1-Luc; for Emax: read-out: AP-1 Max % inh (Cellular Transrepression Assay); for EC50: 10 ng/ml PMA, 7 hours, read-out: AP-1 EC50, nM (Cellular Transrepression Assay). The method, then: Cellular Transrepressional Assay
To measure the ability of test molecules to inhibit AP-1 induced transcriptional activity we utilized an A549 cell which was stably transfected with a plasmid containing 7×AP-1 DNA binding sites (pAP-1-Luc plasmid, Stratagene Co. La Jolla, Calif.) followed by the gene for luciferase. Cells were activated with 10 ng/ml of phorbol myristic acid (PMA) plus or minus test molecules for 7 hours. After 7 hours a luciferase reagent was added to measure luciferase enzymatic activity in the cell. After a 10 minute incubation of luciferase reagent with cells, luminescence was measured in a TopCount luminescence counter. Repression of AP-1 activity was calculated as the percentage decrease in the signal induced by PMA alone. Test molecules were analyzed in the concentration range from 0.1 nM to 40 μM. EC50s were determined by using standard curve fitting methods such as Excel fit (Microsoft Co.). An EC50 is the test molecule concentration at which there is a 50% repression of the maximal inhibition of transcription, i.e. a 50% reduction of AP-1 activity.
(In general: A reporter such as luciferase makes a cellular process visible.)

[1] abbreviates: Homo sapiens, A549, 7 h, maximum inhibition, PMA.

In general, EC50 refers to the concentration needed to bring the measured effect to its halfway point. Consider `CC(C)Cc1ccc(-c2ccc(C(c3ccccc3)C(C)(C)C(=O)Nc3nncs3)cn2)cc1` (stereo not shown) [Example 31, 3-(6-(4-isobutylphenyl)-3-pyridinyl)-2,2-dimethyl-3-phenyl-N-1,3,4-thiadiazol-2-ylpropanamide], for which the Emax under setting [1] amounted to 46.8%. The EC50 (Homo sapiens, A549, 7 h) is 21.5 nM.
For the molecule `CN(C)C(=O)c1ccc(-c2ccc(C(c3ccccc3)C(C)(C)C(=O)Nc3nncs3)cn2)cc1` (stereo not shown) [Example 32, 4-(5-(2,2-dimethyl-3-oxo-1-phenyl-3-(1,3,4-thiadiazol-2-ylamino)propyl)-2-pyridinyl)-N,N-dimethylbenzamide], under setting [1], the Emax stood at 43.1%. In addition, where the note is “Homo sapiens, A549, 7 h”, the concentration for a half-maximal effect (EC50) stood at 73.9 nM.
The corresponding values for `CC(C)Oc1ccc(-c2ccc(C(c3ccccc3)C(C)(C)C(=O)Nc3nncs3)cn2)cc1` (stereo not shown) [Example 33, 3-(6-(4-isopropoxyphenyl)-3-pyridinyl)-2,2-dimethyl-3-phenyl-N-1,3,4-thiadiazol-2-ylpropanamide] are 37.7% and 24 nM.
Take `CC(C)Oc1ccc(-c2ccc(C(c3cccc(F)c3)C(C)(C)C(=O)Nc3nncs3)s2)cc1` (stereo not shown) [Example 38, 3-(3-fluorophenyl)-3-(5-(4-isopropoxyphenyl)-2-thienyl)-2,2-dimethyl-N-1,3,4-thiadiazol-2-ylpropanamide]: the Emax under setting [1] was 23.1%. For the same molecule, the EC50 (Homo sapiens, A549, 7 h) came out at 8.43 nM.
For `CC(C)Cc1ccc(-c2ccc(C(c3cccc(F)c3)C(C)(C)C(=O)Nc3nncs3)s2)cc1` (stereo not shown) [Example 39, 3-(3-fluorophenyl)-3-(5-(4-isobutylphenyl)-2-thienyl)-2,2-dimethyl-N-1,3,4-thiadiazol-2-ylpropanamide], the Emax under setting [1] stood at 44.2%. Under “Homo sapiens, A549, 7 h”, the EC50 turned out to be 18.8 nM.
As for `CCCc1ccc(-c2ccc(C(c3cccc(F)c3)C(C)(C)C(=O)Nc3nncs3)s2)cc1` (stereo not shown) [Example 40, -(3-fluorophenyl)-2,2-dimethyl-3-(5-(4-propylphenyl)-2-thienyl)-N-1,3,4-thiadiazol-2-ylpropanamide], the EC50 amounted to 5.36 nM. The “AP-1 Max % inh (Cellular Transrepression Assay)” value (maximum inhibition, PMA) is reported as 37.26 % inh.
Regarding `CC(C)(C(=O)Nc1nncs1)C(c1cccc(F)c1)c1ccc(-c2ccc(C(=O)N3CCCC3)cc2)s1` (stereo not shown) [Example 41, 3-(3-fluorophenyl)-2,2-dimethyl-3-(5-(4-(1-pyrrolidinylcarbonyl)phenyl)-2-thienyl)-N-1,3,4-thiadiazol-2-ylpropanamide], under setting [1], the Emax turned out to be 65.5%. Moreover, the half-maximal effective concentration (EC50) (Homo sapiens, A549, 7 h) stood at 6.5 nM.
The corresponding values for `CN(C)C(=O)c1ccc(-c2ccc(C(c3cccc(F)c3)C(C)(C)C(=O)Nc3nccs3)s2)cc1` (stereo not shown) [Example 42, 4-(5-(1-(3-Fluorophenyl)-2,2-dimethyl-3-oxo-3-(1,3-thiazol-2-ylamino)propyl)-2-thienyl)-N,N-dimethylbenzamide] are 42.9% and 11.6 nM.
Consider `CN(C)C(=O)c1ccc(-c2ccc(C(c3ccccc3)C(C)(C)C(=O)Nc3nncs3)s2)cc1Cl` (stereo not shown) [Example 43, 2-Chloro-4-(5-(2,2-dimethyl-3-oxo-1-phenyl-3-(1,3,4-thiadiazol-2-ylamino)propyl)-2-thienyl)-N,N-dimethylbenzamide], for which the concentration for a half-maximal effect (EC50) was found to be 10.7 nM. For the same molecule, the Emax under setting [1] turned out to be 38.4%.
With `CC(C)(C(=O)Nc1nncs1)C(c1ccccc1)c1ccc(-c2ccc(C(=O)N3CCOCC3)cc2)s1` (stereo not shown) [Example 45, 2,2-dimethyl-3-(5-(4-(4-morpholinylcarbonyl)phenyl)-2-thienyl)-3-phenyl-N-1,3,4-thiadiazol-2-ylpropanamide], under setting [1], the Emax stood at 51%. The half-maximal effective concentration (EC50) (Homo sapiens, A549, 7 h) was found to be 5.88 nM.
The corresponding values for `CC(C)(C(=O)Nc1nncs1)C(c1ccccc1)c1ccc(-c2ccc(C(=O)N3CCCC3)cc2)s1` (stereo not shown) [Example 47, 2,2-dimethyl-3-phenyl-3-(5-(4-(1-pyrrolidinylcarbonyl)phenyl)-2-thienyl)-N-1,3,4-thiadiazol-2-ylpropanamide] are 39.9% and 3.71 nM.
